Laboratory results: patent US12461089B2, “Olfactory receptor involved in the perception of musk fragrance and the use thereof” (ChemoSensoryX Biosciences SA, priority 2017, dated 2025)
Changes are numbered by the printed parent chain. Like-named read-outs stand apart in the source and are kept apart here.

Key:
Assay type in all cases: cell-based
[1] = molecular target: T1, OR5A2_variant 2 (Homo sapiens, UniProt Q8NGI9, P172L); test: Luciferase reporter concentration-response analysis on haplotype OR5A2_variant 2 (P172L); settings: CRE-luciferase; empty vector pEFIBRHO as control
T1 construct: (P172L, OR5A2_variant 2); expressed in transfected cells; host or cells: HEK293T-RTP1A1/RTP2
T1 sequence (Q8NGI9 1-324 P172L): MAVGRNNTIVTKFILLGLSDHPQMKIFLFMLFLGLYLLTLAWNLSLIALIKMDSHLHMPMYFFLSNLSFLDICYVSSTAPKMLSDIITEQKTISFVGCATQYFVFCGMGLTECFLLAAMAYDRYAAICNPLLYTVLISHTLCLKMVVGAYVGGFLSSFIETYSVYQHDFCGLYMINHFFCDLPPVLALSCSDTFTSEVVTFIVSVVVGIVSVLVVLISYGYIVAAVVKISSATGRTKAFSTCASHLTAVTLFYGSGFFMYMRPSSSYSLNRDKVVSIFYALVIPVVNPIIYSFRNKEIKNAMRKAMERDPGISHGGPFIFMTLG
Procedure: HEK293T-RTP1A1/RTP2 cells were maintained in minimal essential medium (EMEM, Lonza) containing 10% fetal bovine serum (M10). These cells were generated by transfecting HEK293T with an expression vector containing the sequences of the chaperone proteins RTP1A1 and RTP2 and a resistance gene to puromycin, using Lipofectamine 2000.
Odorant molecules were diluted at a concentration of 1 mole/liter (M) into dimethyl sulfoxide (DMSO) to generate stock solutions.
For concentration-response analysis, serial dilutions of the tested molecules were prepared from stock solutions in EMEM plated into 96-well plates.
For the initial deorphanisation screening and dose-response analysis, a Luciferase-based gene reporter assay (Promega, Leiden, The Nederlands) was used. Briefly, cells were platted on Poly-D-lysine-coated 96-well and transfected with a plasmid containing the CRE-luciferase and a plasmid containing the olfactory receptor. Sixteen hours after transfection, the culture medium was replaced by serum-free EMEM containing the tested compounds at a determined concentration. After four hours of incubation at 37° C. degree, cells were lysed and processed for luminescence measurement. Luminescene emission was recorded. Results were expressed as luciferase activity (Relative […] Unit (RLU)) or as percentage of the response induced by 10 μM of the adenylate cyclase activator Forskolin. An empty plasmid is used as negative control.
OR genes are highly variable, with many alleles resulting in differences in smell perception from person to person. These differences can be attributed to genetic variations like, for example, nucleotide polymorphisms. […] Amino acids alignment of the 2 haplotypes are represented in FIG. 4.
To test if the substitution could impact the musk sensitivity, luciferase assays were performed as described previously after transfection of both OR5A2 variants. Cells were treated with semi-logarithmic serial dilutions of musk compounds from the four structurally different groups described earlier. In each experiment, an empty vector was used as negative control (pEFIBRHO).

[2] = molecular target: T2, OR5A2_variant 1 (Homo sapiens, UniProt Q8NGI9); test: Luciferase reporter concentration-response analysis on OR5A2_variant 1; settings: for activation of OR5A2 (OR5A2_variant 1), concentration-response: CRE-luciferase, semi-logarithmic serial dilutions, empty vector pEFIBRHO as control
T2 construct: expressed in transfected cells; host or cells: HEK293T-RTP1A1/RTP2
T2 sequence (Q8NGI9 1-324): T1 sequence (Q8NGI9 1-324 P172L) with L172P

[3] = molecular target: T3, OR5AN1 (Homo sapiens, UniProt Q8NGI8, E89G); test: Luciferase reporter concentration-response analysis on OR5AN1
T3 construct: expressed in transfected cells; host or cells: HEK293T-RTP1A1/RTP2
T3 sequence (Q8NGI8 1-311 E89G): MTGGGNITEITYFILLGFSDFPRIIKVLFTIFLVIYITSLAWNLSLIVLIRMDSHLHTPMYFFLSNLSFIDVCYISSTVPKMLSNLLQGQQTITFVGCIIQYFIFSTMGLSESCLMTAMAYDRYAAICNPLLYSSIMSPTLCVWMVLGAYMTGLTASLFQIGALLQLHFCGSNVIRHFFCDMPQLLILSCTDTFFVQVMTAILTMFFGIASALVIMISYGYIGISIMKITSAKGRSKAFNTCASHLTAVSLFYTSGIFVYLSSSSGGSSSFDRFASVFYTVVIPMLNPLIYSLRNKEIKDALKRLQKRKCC

[4] = concentration-response analysis, luciferase reporter, values given as negative (log) numbers, read-out: calculated EC50, OR5A2 (converted)
[5] = concentration-response analysis, luciferase reporter, values given as negative (log) numbers, Non Active = no activation after testing, read-out: calculated EC50, OR5AN1 (converted)

SMILES | activation of OR5A2_variant 2 (P172L), concentration-response [1] | activation of OR5A2 (OR5A2_variant 1), concentration-response [2] | EC50 [2, 4] | EC50 [3, 5] | EC50 [2] | EC50 [3]
CC(=O)c1c(C)c([N+](=O)[O-])c(C(C)(C)C)c([N+](=O)[O-])c1C [Musk Ketone, 4-tert-butyl-2,6-dimethyl-3,5-dinitroacetophenone] | not activated | shows dose response curves | 107 µM | 288 nM |  | 
Cc1c([N+](=O)[O-])c(C)c([N+](=O)[O-])c(C(C)(C)C)c1[N+](=O)[O-] [Musk Xylene, 1-tert-butyl-3,5-dimethyl-2,4,6-trinitrobenzene] | not activated | shows dose response curves |  |  | 1.86 µM | 661 nM
O=C1CCC/C=C\CCCCCCCCCC1 [Velvione] | not activated | shows dose response curves | 28.8 µM | 49000 nM |  | 
